Reference: patent US20110257204A1, “Penciclovir or Famciclovir for Treatment of Recurrent Genital Herpes with a One-Day Application” (priority 2005, published 2011)
Read-outs that look alike come from different tables or passages of the source.

Tests used:
[1] = test system: recurrent genital herpes lesions; conditions: previous trial; clinic-initiated treatment, low dose 125 mg twice a day for five days; cited from earlier work
[2] = regardless of the dose given; cited from earlier work
[3] = test system: recurrent genital herpes lesions; format: in vivo, human; conditions: for Time to healing of all lesions (median) / Proportion of aborted lesions: ITT; for Time to healing of all lesions (median): aborted lesions assigned time to healing of zero; for Time to healing of all lesions (median) / Proportion of aborted lesions / Time to healing of non-aborted lesions (median): famciclovir 1,000 mg b.i.d. for one day; for Hazard ratio, time to healing of non-aborted lesions: famciclovir 1,000 mg b.i.d. one day vs placebo
Description: The multi-center, multi-country, randomized, double-blind parallel-group, placebo controlled study is conducted to assess the efficacy and safety of a patient-initiated one-day treatment with famciclovir ([…]) 1,000 mg, twice a day, in patients with recurrent genital herpes. Approximately 450 eligible patients are randomized in a 1:1 ratio to receive either famciclovir (1,000 mg, twice a day) or matching placebo for one day. Patients are instructed to obtain a viral sample and initiate treatment within six hours of prodrome and/or recurrence of genital herpes lesions. All patients are required to return for clinic visits for observation of lesions on Days 2 and 3. Patients with lesions will continue with clinic visits on Days 4 and 5, then every other day until it is deemed that lesion healing has occurred however not to exceed Day 14. The following Table 1 represents the study design. Each patient receives either Famciclovir 2,000 mg [1,000 mg (4×250 mg capsules)] orally or placebo (4×250 mg matching placebo capsules) orally twice in one day. Study medication is to be administered twice in one day (during normal waking hours). One-day equals to 24 hours, if the patent starts a first dose in the PM the second should be taken upon waking in the AM. The first dose is taken within six hours of prodrome and/or genital herpes lesion occurrence. Within 6 hours of recurrence of either genital herpes symptom onset and/or lesion and prior to initiating therapy, patients obtain a viral sample for PCR at Visit 1. The sample is brought to the clinic at Visit 2. Patients maintain a diary to assess and record appearance/stage and location of lesion. From Visit 2 onwards, physicals are performed by clinician who examines genitalia for herpes lesions. Patients with lesions will continue with clinic visit on Days 4 (Visit 5) and 5 (Visit 6) then every other day until clinician investigator deems that the lesion healing has occurred however not to exceed Day 14. Should patients only experience symptoms, without onset of herpes lesion, these patients will return for clinic visits until resolution of symptoms. The primary efficacy variable refers to the investigator-assessed time to healing (re-epithelization, erythema may be present) of all non-aborted genital herpes lesions from the time of the first dose of study medication. Non-aborted lesions refer to all lesions requiring re-epithelization: lesions which undergo vesicular, ulcer/soft crust, hard crust formation. […] Primary efficacy variable is analyzed using the proportional hazards model, with treatment, gender and study center as explanatory variables, for patients over the modified ITT population. The Efron approximate likelihood method is used for resolution of ties. The 95% confidence intervals for the hazard ratio and median times to healing is calculated. The time to healing based on investigator-assessment (with aborted lesions assigned a time of zero) is analyzed on the PCR-positive and the ITT populations. A proportional hazards model is used in analysis, with treatment, gender, and study center as explanatory variables. The Efron approximate likelihood method is used for resolution of ties. A 95% confidence interval for the hazard ratio and median times to healing is calculated. Covariates and interactions listed for the primary efficacy variable are assessed separately by adding their terms into the proportional hazards model. The time to resolution of each symptom, as well as the time to resolution of all symptoms, will be analyzed using a proportional hazards model with treatment, gender, and study center as explanatory variables, over the ITT population. The proportion of patients reporting each symptom is presented descriptively, and compared between treatments using the Chochran-Mantel-Haenszel 9CHM) test, stratified by gender and study center, over the ITT population. […]

[4] = patients receiving famciclovir in earlier studies; cited from earlier work

CC(=O)OCC(CCn1cnc2cnc(N)nc21)COC(C)=O [famciclovir, 9-(4-acetoxy-3-acetoxymethylbut-1-yl)-2-aminopurine]
Hazard ratio between famciclovir and placebo for time to healing [1]: 1.48
Bioavailability [2]: 77%
Time to healing of all lesions (median) [3]: 3.5 days
Time to healing of all lesions (median) ([3]; listed as Famciclovir): 4.3 days
Proportion of aborted lesions [3]: 23.3%
Proportion of aborted lesions ([3]; listed as Famciclovir): 23.3%
Time to healing of non-aborted lesions (median) ([3]; Modified ITT, oral, patient-initiated within 6 hours): 4.3 days
Hazard ratio, time to healing of non-aborted lesions ([3]; Modified ITT, proportional hazards model): 1.64
Time to healing of non-aborted lesions (median) ([3]; Per Protocol): 4.3 days
Hazard ratio, time to healing of non-aborted lesions ([3]; Per Protocol): 1.72
Reduction of median time to healing of recurrent genital herpes lesions compared to placebo ([3]; famciclovir 1,000 mg twice a day, one day, immunocompetent patients, non-aborted lesions): two
Most commonly reported adverse events [4]: headache and nausea
